{"source": "patent US9260439B2", "about": "“Dihydropyrrolopyrimidine derivatives” (PFIZER INC., priority 2014, dated 2016)", "data": [{"biological_target": "truncated PI3Kα (p110α/iSH2 p85α) (Homo sapiens (Human), UniProt P42336)", "sequence (P42336 whole entry, the tested form may be a part)": "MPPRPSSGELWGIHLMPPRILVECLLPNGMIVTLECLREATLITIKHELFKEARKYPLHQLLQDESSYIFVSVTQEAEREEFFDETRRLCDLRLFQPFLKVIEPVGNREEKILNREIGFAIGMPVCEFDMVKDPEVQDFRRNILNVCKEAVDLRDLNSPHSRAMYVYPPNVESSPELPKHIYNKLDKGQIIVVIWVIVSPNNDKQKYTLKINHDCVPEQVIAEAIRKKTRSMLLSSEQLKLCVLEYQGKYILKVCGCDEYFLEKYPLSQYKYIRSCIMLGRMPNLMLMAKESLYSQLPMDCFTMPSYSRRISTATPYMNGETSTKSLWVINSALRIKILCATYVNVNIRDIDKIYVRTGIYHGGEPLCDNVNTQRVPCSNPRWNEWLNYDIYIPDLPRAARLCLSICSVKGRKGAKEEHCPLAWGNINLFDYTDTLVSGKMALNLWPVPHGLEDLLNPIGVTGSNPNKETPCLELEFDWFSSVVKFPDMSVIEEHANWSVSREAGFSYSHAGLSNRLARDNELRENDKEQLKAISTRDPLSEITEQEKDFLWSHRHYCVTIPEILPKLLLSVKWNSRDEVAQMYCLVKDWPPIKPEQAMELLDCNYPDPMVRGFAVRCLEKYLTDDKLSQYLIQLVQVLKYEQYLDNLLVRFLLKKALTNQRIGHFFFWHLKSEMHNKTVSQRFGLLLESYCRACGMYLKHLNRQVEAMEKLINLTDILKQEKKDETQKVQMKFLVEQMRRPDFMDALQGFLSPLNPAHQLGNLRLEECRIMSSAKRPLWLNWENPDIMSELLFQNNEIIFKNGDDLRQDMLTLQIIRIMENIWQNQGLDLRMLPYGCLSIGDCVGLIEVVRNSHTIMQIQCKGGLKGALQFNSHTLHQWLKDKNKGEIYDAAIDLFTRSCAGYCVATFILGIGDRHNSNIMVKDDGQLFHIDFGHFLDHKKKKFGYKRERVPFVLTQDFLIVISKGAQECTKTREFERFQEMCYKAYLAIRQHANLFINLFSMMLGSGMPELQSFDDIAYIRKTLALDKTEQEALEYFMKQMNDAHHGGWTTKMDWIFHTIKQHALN", "assay": "PI3KA_Act fluorescence polarization kinase assay (Ki)", "type": "biochemical", "conditions": "1 mM ATP", "how_it_was_run": "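p110α/iSH2 p85α (0.5 nM) was reacted with 30 μM sonicated PIP2 in 50 mM HEPES pH 7.4, 150 mM NaCl, 5 mM MgCl2, 1 mM DTT and 0.05% CHAPS for 30 min at room temperature, then stopped with EDTA. PIP3 was detected by fluorescence polarization (GST-Grp1 PH domain/TAMRA-PIP3), and Ki came from a Morrison tight-binding fit.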", "units": {"PI3KA_Act Ki": "nM", "Ki": "nM"}, "values": [{"smiles": "CC(C)C(=O)N1CC[C@@](C)(N2CCc3c(-c4cnc(N)nc4)nc(N4CCOCC4)nc32)C1", "note": "[Example 263, 1-{(3R)-3-[4-(2-aminopyrimidin-5-yl)-2-(morpholin-4-yl)-5,6-dihydro-7H-pyrrolo[2,3-d]pyrimidin-7-yl]-3-methylpyrrolidin-1-yl}-2-methylpropan-1-one]", "PI3KA_Act Ki": 0.122}, {"smiles": "COCCCS(=O)(=O)N1CC(N2CCc3c(-c4cnc(N)nc4)nc(N4CCOC[C@@H]4C)nc32)C1", "note": "[Example 153]", "PI3KA_Act Ki": 0.105}, {"smiles": "C[C@H]1COCCN1c1nc(-c2cnc(N)nc2)c2c(n1)N([C@@]1(C)CCN(C3CCNC3=O)C1)CC2", "note": "(single isomer, unassigned) [Example 514]", "PI3KA_Act Ki": 0.068}, {"smiles": "CN1CC[C@@H]1C(=O)N1CC[C@](C)(N2CCc3c(-c4cnc(N)nc4)nc(N4CCOCC4)nc32)C1", "note": "[Example 353, {(3S)-3-[4-(2-aminopyrimidin-5-yl)-2-(morpholin-4-yl)-5,6-dihydro-7H-pyrrolo[2,3-d]pyrimidin-7-yl]-3-methylpyrrolidin-1-yl}[(2R)-1-methylazetidin-2-yl]methanone]", "PI3KA_Act Ki": 0.078}, {"smiles": "CCOC(=O)C(C)(C)C(=O)N1CC[C@](C)(N2CCc3c(-c4cnc(N)nc4)nc(N4CCOCC4)nc32)C1", "note": "[Example 322, ethyl 3-{(3S)-3-[4-(2-aminopyrimidin-5-yl)-2-(morpholin-4-yl)-5,6-dihydro-7H-pyrrolo[2,3-d]pyrimidin-7-yl]-3-methylpyrrolidin-1-yl}-2,2-dimethyl-3-oxopropanoate]", "PI3KA_Act Ki": "<0.018"}, {"smiles": "[2H]C1([2H])CN(c2nc(-c3cnc(N)nc3)c3c(n2)N([C@@]2(C)CCN(C(=O)C(C)(C)N)C2)CC3)CC([2H])([2H])O1", "note": "[Example 233]", "Ki": "< 0.018"}, {"smiles": "C[C@H]1COCCN1c1nc(-c2cnc(N)nc2)c2c(n1)N(C1CN(S(=O)(=O)C3CNC3)C1)CC2", "note": "[Example 222]", "PI3KA_Act Ki": 0.101}, {"smiles": "C[C@H]1COCCN1c1nc(-c2cnc(N)nc2)c2c(n1)N([C@@]1(C)CCN(C(=O)[C@H]3CCOC3)C1)CC2", "note": "[Example 500, [(3S)-3-{4-(2-aminopyrimidin-5-yl)-2-[(3S)-3-methylmorpholin-4-yl]-5,6-dihydro-7H-pyrrolo[2,3-d]pyrimidin-7-yl}-3-methylpyrrolidin-1-yl][(3S)-tetrahydrofuran-3-yl]methanone]", "PI3KA_Act Ki": 0.064}, {"smiles": "C[C@]1(N2CCc3c(-c4cnc(N)nc4)nc(N4CCOCC4)nc32)CCN(C(=O)[C@@H]2CCCN2)C1.Cl", "note": "[Example 377, {(3S)-3-[4-(2-aminopyrimidin-5-yl)-2-(morpholin-4-yl)-5,6-dihydro-7H-pyrrolo[2,3-d]pyrimidin-7-yl]-3-methylpyrrolidin-1-yl}[(2S)-pyrrolidin-2-yl]methanone hydrochloride]", "PI3KA_Act Ki": 0.026}, {"smiles": "C[C@]1(N2CCc3c(-c4cnc(N)nc4)nc(N4CCOCC4)nc32)CCN(C(=O)[C@@H]2CC2(F)F)C1", "note": "[Example 337, {(3S)-3-[4-(2-aminopyrimidin-5-yl)-2-(morpholin-4-yl)-5,6-dihydro-7H-pyrrolo[2,3-d]pyrimidin-7-yl]-3-methylpyrrolidin-1-yl}[(1S)-2,2-difluorocyclopropyl] methanone]", "PI3KA_Act Ki": "<0.018"}, {"smiles": "C[C@]1(N2CCc3c(-c4cnc(N)nc4)nc(N4CCOCC4)nc32)CCN(C(=O)[C@H]2CCCN2)C1.Cl", "note": "[Example 382, {(3S)-3-[4-(2-aminopyrimidin-5-yl)-2-(morpholin-4-yl)-5,6-dihydro-7H-pyrrolo[2,3-d]pyrimidin-7-yl]-3-methylpyrrolidin-1-yl}[(2R)-pyrrolidin-2-yl]methanone hydrochloride]", "PI3KA_Act Ki": "<0.018"}, {"smiles": "C[C@]1(N2CCc3c(-c4cnc(N)nc4)nc(N4CCOCC4)nc32)CCN(C(=O)c2cc[nH]n2)C1", "note": "[Example 389, {(3S)-3-[4-(2-aminopyrimidin-5-yl)-2-(morpholin-4-yl)-5,6-dihydro-7H-pyrrolo[2,3-d]pyrimidin-7-yl]-3-methylpyrrolidin-1-yl}(1H-pyrazol-3-yl)methanone]", "PI3KA_Act Ki": "<0.018"}, {"smiles": "CC(C)OC(=O)N1CC[C@](C)(N2CCc3c(-c4cnc(N)nc4)nc(N4CCOCC4)nc32)C1", "note": "[Example 406, propan-2-yl (3S)-3-[4-(2-aminopyrimidin-5-yl)-2-(morpholin-4-yl)-5,6-dihydro-7H-pyrrolo[2,3-d]pyrimidin-7-yl]-3-methylpyrrolidine-1-carboxylate]", "PI3KA_Act Ki": "<0.018"}, {"smiles": "CC(=O)N1CC[C@](C)(N2CCc3c(-c4cnc(N)nc4)nc(N4CCOC[C@@H]4C)nc32)C1", "note": "[Example 469, 1-[(3S)-3-{4-(2-aminopyrimidin-5-yl)-2-[(3S)-3-methylmorpholin-4-yl]-5,6-dihydro-7H-pyrrolo[2,3-d]pyrimidin-7-yl}-3-methylpyrrolidin-1-yl]ethanone]", "PI3KA_Act Ki": 0.052}, {"smiles": "C[C@]1(N2CCc3c(-c4cnc(N)nc4)nc(N4CCOCC4)nc32)CCN(C(=O)[C@H]2CC2(F)F)C1", "note": "[Example 336, {(3S)-3-[4-(2-aminopyrimidin-5-yl)-2-(morpholin-4-yl)-5,6-dihydro-7H-pyrrolo[2,3-d]pyrimidin-7-yl]-3-methylpyrrolidin-1-yl}[(1R)-2,2-difluorocyclopropyl] methanone]", "PI3KA_Act Ki": 0.054}, {"smiles": "CNS(=O)(=O)N1CC(C)(N2CCc3c(-c4cnc(N)nc4)nc(N4CCOCC4)nc32)C1", "note": "[Example 190]", "PI3KA_Act Ki": 0.040}, {"smiles": "CC(C(=O)O)C(=O)N1CC[C@](C)(N2CCc3c(-c4cnc(N)nc4)nc(N4CCOCC4)nc32)C1", "note": "(stereo partly drawn) [Example 320, 3-{(3S)-3-[4-(2-aminopyrimidin-5-yl)-2-(morpholin-4-yl)-5,6-dihydro-7H-pyrrolo[2,3-d]pyrimidin-7-yl]-3-methylpyrrolidin-1-yl}-2-methyl-3-oxopropanoic acid]", "PI3KA_Act Ki": 0.318}, {"smiles": "CCOC(=O)C(C)(C)N1CCc2c(-c3cnc(N)nc3)nc(N3CCOC[C@@H]3C)nc21", "note": "[Example 200]", "PI3KA_Act Ki": 0.909}, {"smiles": "C[C@H]1COCCN1c1nc(-c2cnc(N)nc2)c2c(n1)N([C@@]13C[C@@H]1CN(C(=O)OC(C)(C)C)C3)CC2", "note": "[Example 527, tert-butyl (1S,5R)-1-{4-(2-aminopyrimidin-5-yl)-2-[(3S)-3-methylmorpholin-4-yl]-5,6-dihydro-7H-pyrrolo[2,3-d]pyrimidin-7-yl}-3-azabicyclo[3.1.0]hexane-3-carboxylate]", "PI3KA_Act Ki": "<0.018"}, {"smiles": "C[C@]1(N2CCc3c(-c4cnc(N)nc4)nc(N4CCOCC4)nc32)CCN(C(=O)[C@H]2C[C@H]2F)C1", "note": "[Example 335, {(3S)-3-[4-(2-aminopyrimidin-5-yl)-2-(morpholin-4-yl)-5,6-dihydro-7H-pyrrolo[2,3-d]pyrimidin-7-yl]-3-methylpyrrolidin-1-yl}[(1R,2R)-2-fluorocyclopropyl] methanone]", "PI3KA_Act Ki": "<0.018"}, {"smiles": "CC[C@@H](N)C(=O)N1CC[C@](C)(N2CCc3c(-c4cnc(N)nc4)nc(N4CCOC[C@@H]4C)nc32)C1.Cl", "note": "[Example 478, (2R)-2-amino-1-[(3S)-3-{4-(2-aminopyrimidin-5-yl)-2-[(3S)-3-methylmorpholin-4-yl]-5,6-dihydro-7H-pyrrolo[2,3-d]pyrimidin-7-yl}-3-methylpyrrolidin-1-yl]butan-1-one hydrochloride]", "PI3KA_Act Ki": 0.026}, {"smiles": "CC(C(=O)N1CC[C@](C)(N2CCc3c(-c4cnc(N)nc4)nc(N4CCOCC4)nc32)C1)N(C)C", "note": "(stereo partly drawn) [Example 302, 1-{(3S)-3-[4-(2-aminopyrimidin-5-yl)-2-(morpholin-4-yl)-5,6-dihydro-7H-pyrrolo[2,3-d]pyrimidin-7-yl]-3-methylpyrrolidin-1-yl}-2-(dimethylamino) propan-1-one]", "PI3KA_Act Ki": 0.038}, {"smiles": "C[C@H]1COCCN1c1nc(-c2cnc(N)nc2)c2c(n1)N(C1CN(S(=O)(=O)N3CCC3)C1)CC2", "note": "[Example 464, 5-{7-[1-(azetidin-1-ylsulfonyl)azetidin-3-yl]-2-[(3S)-3-methylmorpholin-4-yl]-6,7-dihydro-5H-pyrrolo[2,3-d]pyrimidin-4-yl}pyrimidin-2-amine]", "PI3KA_Act Ki": 0.193}, {"smiles": "CC(C)S(=O)(=O)N1CC(C)(N2CCc3c(-c4cnc(N)nc4)nc(N4CCOC[C@@H]4C)nc32)C1", "note": "[Example 204]", "PI3KA_Act Ki": "<0.018"}, {"smiles": "C[C@H]1COCCN1c1nc(-c2cnc(N)nc2)c2c(n1)N([C@]1(C)CCNC1)CC2.Cl", "note": "[Example 466, 5-{2-[(3S)-3-methylmorpholin-4-yl]-7-[(3R)-3-methylpyrrolidin-3-yl]-6,7-dihydro-5H-pyrrolo[2,3-d]pyrimidin-4-yl}pyrimidin-2-amine hydrochloride]", "PI3KA_Act Ki": 0.303}, {"smiles": "C[C@H]1COCCN1c1nc(-c2cnc(N)nc2)c2c(n1)N([C@]1(C)CCN(S(C)(=O)=O)C1)CC2", "note": "[Example 174]", "PI3KA_Act Ki": 0.030}, {"smiles": "CNC(=O)CN1CC[C@](C)(N2CCc3c(-c4cnc(N)nc4)nc(N4CCOCC4)nc32)C1", "note": "[Example 401, 2-{(3S)-3-[4-(2-aminopyrimidin-5-yl)-2-(morpholin-4-yl)-5,6-dihydro-7H-pyrrolo[2,3-d]pyrimidin-7-yl]-3-methylpyrrolidin-1-yl}-N-methylacetamide]", "PI3KA_Act Ki": 0.109}, {"smiles": "C[C@H]1COCCN1c1nc(-c2cnc(N)nc2)c2c(n1)N([C@@]1(C)CCN(C(=O)[C@@]3(C)CCN3)C1)CC2.Cl", "note": "[Example 494, [(3S)-3-{4-(2-aminopyrimidin-5-yl)-2-[(3S)-3-methylmorpholin-4-yl]-5,6-dihydro-7H-pyrrolo[2,3-d]pyrimidin-7-yl}-3-methylpyrrolidin-1-yl][(2R)-2-methylazetidin-2-yl]methanone hydrochloride]", "PI3KA_Act Ki": 0.046}, {"smiles": "Nc1ncc(-c2nc(N3CCOCC3)nc3c2CCN3C2CN(S(=O)(=O)C3CCC3)C2)cn1", "note": "[Example 251, 5-{7-[1-(cyclobutylsulfonyl)azetidin-3-yl]-2-(morpholin-4-yl)-6,7-dihydro-5H-pyrrolo[2,3-d]pyrimidin-4-yl}pyrimidin-2-amine]", "PI3KA_Act Ki": 1.652}]}]}
